Assay results taken from ChEMBL document CHEMBL1201862, “PubChem BioAssay data set” (2004).
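Where inhibition never reached the appropriate level, the endpoint shown equals the highest concentration tested. Otherwise, values were interpolated linearly from a five-concentration, 48-hour dose response in 96-well plates. GI50: concentration for 50% inhibition of growth.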 Activity calls are given as the source filed them. Rule as the data show it: active = GI50 up to about 1.1 µM and inactive = higher.

Tests used:
Test in all cases: growth of human tumour cells (NCI), 48 h
[1] = tested on: A549
[2] = tested on: HL-60
[3] = tested on: T47D
[4] = tested on: OVCAR-3
[5] = tested on: 786-0
[6] = tested on: SR
[7] = tested on: Malme-3M
[8] = tested on: M14
[9] = tested on: MDA-N
[10] = tested on: EKVX
[11] = tested on: UACC-257
[12] = tested on: NCI-H23
[13] = tested on: COLO 205
[14] = tested on: SK-OV-3
[15] = tested on: BT-549
[16] = tested on: IGROV-1
[17] = tested on: HOP-62
[18] = tested on: NCI-H226
[19] = tested on: NCI-H460
[20] = tested on: MDA-MB-435

Row | SMILES | GI50 [1] | GI50 [2] | GI50 [3] | GI50 [4] | GI50 [5] | GI50 [6] | GI50 [7] | GI50 [8] | GI50 [9] | GI50 [10] | GI50 [11] | GI50 [12] | GI50 [13] | GI50 [14] | GI50 [15] | GI50 [16] | GI50 [17] | GI50 [18] | GI50 [19] | GI50 [20]
1 | Cc1nc2c(O)c3c(c(O)c2nc1C)C1C=CC3CC1 | 24.9 µM (inactive) | 0.973 µM (active) | 2.79 µM (inactive) | 6.22 µM (inactive) | 13.9 µM (inactive) | 9.59 µM (inactive) | 12.7 µM (inactive) | 15.3 µM (inactive) | 2.97 µM (inactive) | 11 µM (inactive) | 7.24 µM (inactive) | 5.86 µM (inactive) | 19.7 µM (inactive) | 22 µM (inactive) | 15.7 µM (inactive) | 7.31 µM (inactive) | 19.6 µM (inactive) | 29.6 µM (inactive) | 30.3 µM (inactive) | 3.04 µM (inactive)
2 | CC(=O)N(C)CCc1c[nH]c2ccccc12 | > 100 µM (inactive) | > 100 µM (inactive) | > 100 µM (inactive) | > 100 µM (inactive) | > 100 µM (inactive) | > 100 µM (inactive) | > 100 µM (inactive) | > 100 µM (inactive) | > 100 µM (inactive) | > 100 µM (inactive) | > 100 µM (inactive) | > 100 µM (inactive) | > 100 µM (inactive) | > 100 µM (inactive) | > 100 µM (inactive) | > 100 µM (inactive) | > 100 µM (inactive) | > 100 µM (inactive) | > 100 µM (inactive) | > 100 µM (inactive)
3 | CCOP1(=O)CC(C)=C(Cl)C(O)C1 (stereo not given) | > 100 µM (inactive) | > 100 µM (inactive) | > 100 µM (inactive) | > 100 µM (inactive) | > 100 µM (inactive) | > 100 µM (inactive) | > 100 µM (inactive) | > 100 µM (inactive) | > 100 µM (inactive) | > 100 µM (inactive) | > 100 µM (inactive) | > 100 µM (inactive) | > 100 µM (inactive) | > 100 µM (inactive) | > 100 µM (inactive) | > 100 µM (inactive) | > 100 µM (inactive) | > 100 µM (inactive) | > 100 µM (inactive) | > 100 µM (inactive)
4 | CC12CC3(O)OC(O1)C1(COC(=O)c4ccccc4)C3CC21OC1OC(CO)C(O)C(O)C1O (stereo not given) | > 100 µM (inactive) | > 100 µM (inactive) | > 100 µM (inactive) | > 100 µM (inactive) | > 100 µM (inactive) | > 100 µM (inactive) | > 100 µM (inactive) | > 100 µM (inactive) | > 100 µM (inactive) | > 100 µM (inactive) | > 100 µM (inactive) | > 100 µM (inactive) | > 100 µM (inactive) | > 100 µM (inactive) | > 100 µM (inactive) | > 100 µM (inactive) | > 100 µM (inactive) | > 100 µM (inactive) | > 100 µM (inactive) | > 100 µM (inactive)
5 | CCCC(=O)Nc1cc(/C=C/C(=O)N2CC(CCl)c3c2cc(OC(C)=O)c2[nH]cc(C)c32)n(C)c1 (stereo not given) | 8.19e-05 µM (active) | < 2.5e-05 µM (active) | 6.3e-05 µM (active) | < 2.5e-05 µM (active) | < 2.5e-05 µM (active) | < 2.5e-05 µM (active) | 3.23e-05 µM (active) | 5.38e-05 µM (active) | 5.12e-05 µM (active) | 0.000108 µM (active) | 2.97e-05 µM (active) | < 2.5e-05 µM (active) | 7.03e-05 µM (active) | 7.05e-05 µM (active) | 8.09e-05 µM (active) | 3.76e-05 µM (active) | 4.63e-05 µM (active) | 4.33e-05 µM (active) | < 2.5e-05 µM (active) | 4.95e-05 µM (active)
6 | COC(=O)C1=C(OC(=O)/C=C/c2ccccc2)C(C(=O)OC)[C@@]2(O)[C@@H](C(=O)OC)[C@H](C)C[C@@H]1[C@@H]2C(=O)OC (stereo not given in full) | 15.3 µM (inactive) | 39.2 µM (inactive) | 24.5 µM (inactive) | 19.9 µM (inactive) | 17.1 µM (inactive) | > 100 µM (inactive) | 15.8 µM (inactive) | 25.5 µM (inactive) | 19.7 µM (inactive) | 15.5 µM (inactive) | 20.1 µM (inactive) | 17.3 µM (inactive) | 28.8 µM (inactive) | 21.4 µM (inactive) | 15.4 µM (inactive) | 25 µM (inactive) | 19 µM (inactive) | 41.1 µM (inactive) | 17 µM (inactive) | 15.6 µM (inactive)
7 | COc1ccc(CC2c3cc(Oc4cc(CC5c6cc(OC)c(OC)cc6CCN5C)ccc4O)c(OC)cc3CCN2C)cc1 (stereo not given) | 6.73 µM (inactive) | 7.78 µM (inactive) | 6.43 µM (inactive) | 8.05 µM (inactive) | 3.02 µM (inactive) | 1.43 µM (inactive) | 10.1 µM (inactive) | 5.64 µM (inactive) | 7.1 µM (inactive) | 8.65 µM (inactive) | 8.04 µM (inactive) | 8.18 µM (inactive) | 7.06 µM (inactive) | 9.29 µM (inactive) | 6.64 µM (inactive) | 8.59 µM (inactive) | 7.93 µM (inactive) | 10.2 µM (inactive) | 6.98 µM (inactive) | 4.14 µM (inactive)
8 | COc1ccc(NC/C=C/C(=C/COC(C)=O)OC(C)=O)cc1 | 15.3 µM (inactive) | 2.27 µM (inactive) | 2.41 µM (inactive) | 2 µM (inactive) | 1.18 µM (inactive) | 0.514 µM (active) | 2.34 µM (inactive) | 1.73 µM (inactive) | 2.05 µM (inactive) | 2.03 µM (inactive) | 2.24 µM (inactive) | 2.06 µM (inactive) | 1.88 µM (inactive) | 14.9 µM (inactive) | 1.59 µM (inactive) | 1.8 µM (inactive) | 2.42 µM (inactive) | 19.3 µM (inactive) | 2.08 µM (inactive) | 1.73 µM (inactive)
9 | COc1cc(C(c2cccc3ccccc23)N2C(=O)CCC2C(=O)NCc2ccccc2)cc(OC)c1OC (stereo not given) | > 100 µM (inactive) | 57.7 µM (inactive) | > 100 µM (inactive) | > 100 µM (inactive) | > 100 µM (inactive) | > 100 µM (inactive) | > 100 µM (inactive) | > 100 µM (inactive) | > 100 µM (inactive) | > 100 µM (inactive) | > 100 µM (inactive) | > 100 µM (inactive) | > 100 µM (inactive) | > 100 µM (inactive) | > 100 µM (inactive) | > 100 µM (inactive) | > 100 µM (inactive) | > 100 µM (inactive) | > 100 µM (inactive) | > 100 µM (inactive)
10 | Cc1ccc2c3ccc4c(c3n(C)c2c1)C(=O)C=CC4=O | > 10 µM (inactive) | 1.04 µM (active) | 2.43 µM (inactive) | 2.52 µM (inactive) | 2.33 µM (inactive) | 1.42 µM (inactive) | 2.58 µM (inactive) | 3.66 µM (inactive) | 4.94 µM (inactive) | > 10 µM (inactive) | 6.67 µM (inactive) | > 9.23 µM (inactive) | 2.5 µM (inactive) | > 10 µM (inactive) | 3.32 µM (inactive) | > 10 µM (inactive) | > 10 µM (inactive) | > 10 µM (inactive) | > 10 µM (inactive) | 5.86 µM (inactive)
